Experimental data as given in US7812117B2, “Vasostatin as marrow protectant” (The United States of America as represented by the …, priority 1998, dated 2010).

Legend:
murine bone marrow cells [1] = test: Murine bone marrow cell proliferation in vitro ([3H] thymidine incorporation); conditions: cisplatinum 25 μM, regardless the addition of vaso
murine bone marrow cells [2] = conditions: C57BL/6NCR, mouse, 77 nM

Row | Structure (SMILES) | bone marrow cell proliferation induced by IL-3 at the highest dose of cisplatinum (murine bone marrow cells [1]) | reduction of bone marrow cell proliferation (murine bone marrow cells [2])
1 | N.N.[Cl][Pt][Cl] [Cisplatinum, cis-diammine-dichloroplatinum II, reference compound] | minimal | –
2 | COc1cc([C@@H]2c3cc4c(cc3[C@@H](O[C@@H]3O[C@@H]5CO[C@@H](C)O[C@H]5[C@H](O)[C@H]3O)[C@H]3COC(=O)[C@H]23)OCO4)cc(OC)c1O [Etoposide, reference compound] | – | 1.5-2.7 fold
